Reference: ChEMBL document CHEMBL1201862, “PubChem BioAssay data set” (2004)
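How tested: cells in 96-well plates exposed to compound for 48 hours at five concentrations. Abbreviation: GI50, concentration required for 50% inhibition of growth.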 Calls of active or inactive are those of the source. Cut-off read from the data, not from the text of the source: active = GI50 up to about 1.1 µM and inactive = higher.

Legend:
Experiment in all cases: inhibition of tumour cell growth, NCI panel, 48 h
786-0 = system: 786-0
HCT-15 = system: HCT-15
K562 = system: K562
M14 = system: M14
NCI-H460 = system: NCI-H460
OVCAR-3 = system: OVCAR-3
SF-539 = system: SF-539
SK-MEL-2 = system: SK-MEL-2
SK-MEL-5 = system: SK-MEL-5
SK-OV-3 = system: SK-OV-3
U-251 = system: U-251
UACC-257 = system: UACC-257
UACC-62 = system: UACC-62
UO-31 = system: UO-31
SR = system: SR

Row | SMILES | GI50 (786-0) | GI50 (HCT-15) [µM] | GI50 (K562) | GI50 (M14) | GI50 (NCI-H460) | GI50 (OVCAR-3) | GI50 (SF-539) | GI50 (SK-MEL-2) | GI50 (SK-MEL-5) | GI50 (SK-OV-3) | GI50 (U-251) | GI50 (UACC-257) | GI50 (UACC-62) | GI50 (UO-31) | GI50 (SR)
1 | C[C@]12CCC(=O)CC1CCCC2=O (some centres undefined) | > 100 µM (inactive) | > 100 | > 100 µM (inactive) | > 100 µM (inactive) | > 100 µM (inactive) | > 100 µM (inactive) | > 100 µM (inactive) | > 100 µM (inactive) | > 100 µM (inactive) | > 100 µM (inactive) | > 100 µM (inactive) | > 100 µM (inactive) | > 100 µM (inactive) | > 100 µM (inactive) | –
2 | CC(=O)OCCOCNC(=S)N/N=C(\C)c1cnc2ccccc2n1 | 39.7 µM (inactive) | 34 | 43.4 µM (inactive) | 36 µM (inactive) | 27 µM (inactive) | 16.8 µM (inactive) | 55.8 µM (inactive) | 33.3 µM (inactive) | 25.1 µM (inactive) | 33.3 µM (inactive) | 29.1 µM (inactive) | 48.4 µM (inactive) | 14.2 µM (inactive) | 41.5 µM (inactive) | > 100 µM (inactive)
3 | CC1S(=O)(=O)OCCOS1(=O)=O | 46.2 µM (inactive) | > 100 | > 100 µM (inactive) | > 100 µM (inactive) | 31.7 µM (inactive) | 74 µM (inactive) | 46.6 µM (inactive) | > 100 µM (inactive) | 50.1 µM (inactive) | > 100 µM (inactive) | 28.8 µM (inactive) | > 94.2 µM (inactive) | 22.6 µM (inactive) | > 100 µM (inactive) | –
4 | O=C1c2ccccc2CCCCCCCCCCC12OCCCO2 | 67.1 µM (inactive) | 25.8 | 68.4 µM (inactive) | 51.3 µM (inactive) | 26.4 µM (inactive) | 32.5 µM (inactive) | 58.1 µM (inactive) | 24.3 µM (inactive) | 35.6 µM (inactive) | 80.5 µM (inactive) | 24.4 µM (inactive) | 24 µM (inactive) | 82.2 µM (inactive) | 79.3 µM (inactive) | –
5 | CP(=O)(CCSc1ccccc1)c1ccccc1 (centres undefined) | > 100 µM (inactive) | > 100 | > 100 µM (inactive) | > 100 µM (inactive) | > 100 µM (inactive) | > 100 µM (inactive) | > 100 µM (inactive) | – | > 100 µM (inactive) | > 100 µM (inactive) | > 100 µM (inactive) | > 100 µM (inactive) | > 100 µM (inactive) | > 100 µM (inactive) | > 100 µM (inactive)
6 | CCOC(=O)C1=C(NC)OCC1=O | > 100 µM (inactive) | > 100 | > 100 µM (inactive) | > 100 µM (inactive) | > 100 µM (inactive) | > 100 µM (inactive) | > 100 µM (inactive) | > 100 µM (inactive) | > 100 µM (inactive) | > 100 µM (inactive) | > 100 µM (inactive) | > 100 µM (inactive) | > 100 µM (inactive) | > 100 µM (inactive) | –
7 | FC(F)(F)c1nc(-c2ccccc2)oc1Sc1oc(-c2ccccc2)nc1C(F)(F)F | > 100 µM (inactive) | > 100 | > 100 µM (inactive) | 56.9 µM (inactive) | 99.1 µM (inactive) | > 100 µM (inactive) | 55.6 µM (inactive) | > 100 µM (inactive) | > 100 µM (inactive) | 65.3 µM (inactive) | 54.6 µM (inactive) | > 100 µM (inactive) | > 100 µM (inactive) | > 100 µM (inactive) | 46.6 µM (inactive)
8 | CC#N.O[C@@H]1CCCC[C@@H]1O.O[C@@H]1CCCC[C@@H]1O.[TeH2] | 34.1 µM (inactive) | 18.8 | 18.7 µM (inactive) | > 100 µM (inactive) | 3.72 µM (inactive) | 31.8 µM (inactive) | > 100 µM (inactive) | 74.3 µM (inactive) | 40.6 µM (inactive) | 77.8 µM (inactive) | 12.9 µM (inactive) | 54.3 µM (inactive) | > 100 µM (inactive) | 57.1 µM (inactive) | 21.1 µM (inactive)
9 | O=c1cccccc1NCCCCCCNc1cccccc1=O | > 100 µM (inactive) | > 100 | > 100 µM (inactive) | > 100 µM (inactive) | > 100 µM (inactive) | > 100 µM (inactive) | – | > 100 µM (inactive) | > 100 µM (inactive) | > 100 µM (inactive) | > 100 µM (inactive) | > 100 µM (inactive) | > 100 µM (inactive) | > 100 µM (inactive) | –
10 | COc1cc([C@@H]2c3cc4c(cc3[C@@H](NC(=O)c3ccc(C#N)cc3)C3COC(=O)[C@@H]32)OCO4)cc(OC)c1O (some centres undefined) | 0.411 µM (active) | 2.28 | 1.63 µM (inactive) | 0.721 µM (active) | < 0.01 µM (active) | 1.85 µM (inactive) | 0.249 µM (active) | 2.29 µM (inactive) | 0.743 µM (active) | 0.374 µM (active) | 0.106 µM (active) | 2.58 µM (inactive) | 0.316 µM (active) | 4.03 µM (inactive) | –
11 | COc1ccc(C=O)c(NC(=O)C(C)C)c1 | 74.6 µM (inactive) | 33.3 | 31 µM (inactive) | 37.6 µM (inactive) | > 100 µM (inactive) | 30.5 µM (inactive) | 40.4 µM (inactive) | 37.6 µM (inactive) | > 10 µM (inactive) | > 100 µM (inactive) | 77.1 µM (inactive) | 27.2 µM (inactive) | 30.3 µM (inactive) | 33.3 µM (inactive) | –
12 | CCCCCC(=O)c1ccc2[nH]c3c(C)cc([N+](=O)[O-])c(C)c3c2c1 | 36.1 µM (inactive) | > 100 | 25.4 µM (inactive) | 70 µM (inactive) | 82 µM (inactive) | 67.6 µM (inactive) | 45.6 µM (inactive) | > 100 µM (inactive) | > 100 µM (inactive) | – | – | > 100 µM (inactive) | – | > 100 µM (inactive) | 56.8 µM (inactive)
13 | CN(C)CC1(Cc2ccccc2)CC/C(=C\c2ccccc2)C1=O (centres undefined) | 35.1 µM (inactive) | 19.8 | 29.4 µM (inactive) | 49.3 µM (inactive) | 28.2 µM (inactive) | 31.4 µM (inactive) | 24.9 µM (inactive) | 50.9 µM (inactive) | 22.5 µM (inactive) | – | 32.8 µM (inactive) | 32.4 µM (inactive) | 15.1 µM (inactive) | 47.8 µM (inactive) | 34 µM (inactive)
14 | O=c1cc2ccccc2nn1Cc1ccccc1Cl | > 100 µM (inactive) | > 100 | 85.3 µM (inactive) | > 100 µM (inactive) | > 100 µM (inactive) | 94.6 µM (inactive) | > 100 µM (inactive) | > 100 µM (inactive) | > 100 µM (inactive) | > 100 µM (inactive) | > 100 µM (inactive) | > 100 µM (inactive) | 89.7 µM (inactive) | 29.5 µM (inactive) | –
15 | CC(=O)C(CN(C)C)C(c1ccccc1)c1c(O)c2ccccc2oc1=O (centres undefined) | > 100 µM (inactive) | > 100 | > 100 µM (inactive) | > 100 µM (inactive) | > 100 µM (inactive) | > 100 µM (inactive) | > 100 µM (inactive) | > 100 µM (inactive) | > 100 µM (inactive) | > 100 µM (inactive) | > 100 µM (inactive) | > 100 µM (inactive) | > 100 µM (inactive) | – | > 100 µM (inactive)
16 | O=C(CC(=O)c1ccccc1)CC(O)(c1ccccc1)c1ccccc1 | – | 4.89 | 2.47 µM (inactive) | 3.61 µM (inactive) | 2.33 µM (inactive) | 4.84 µM (inactive) | – | 9.95 µM (inactive) | 3.52 µM (inactive) | 9.31 µM (inactive) | 3.32 µM (inactive) | 13.2 µM (inactive) | 3.21 µM (inactive) | 5.7 µM (inactive) | 2.88 µM (inactive)
17 | CC(C)OC(=O)c1cc(NC(=O)C(C)(C)C)c(F)cc1Cl | > 100 µM (inactive) | > 100 | > 100 µM (inactive) | > 100 µM (inactive) | > 100 µM (inactive) | > 100 µM (inactive) | > 100 µM (inactive) | > 100 µM (inactive) | > 100 µM (inactive) | > 100 µM (inactive) | > 100 µM (inactive) | > 100 µM (inactive) | > 100 µM (inactive) | > 100 µM (inactive) | –
18 | COC1(Cc2ccccc2)C(=O)c2ccccc2N1C(C)=O (centres undefined) | > 100 µM (inactive) | > 100 | > 100 µM (inactive) | > 100 µM (inactive) | > 100 µM (inactive) | > 100 µM (inactive) | > 100 µM (inactive) | > 100 µM (inactive) | – | > 100 µM (inactive) | > 100 µM (inactive) | > 100 µM (inactive) | > 100 µM (inactive) | > 100 µM (inactive) | > 100 µM (inactive)
19 | C/C(=N\NC(=S)Nc1ccc([N+](=O)[O-])cc1S(=O)(=O)O)c1ccccn1 | 59.8 µM (inactive) | 37.6 | 41.1 µM (inactive) | 64 µM (inactive) | 25.7 µM (inactive) | 26.6 µM (inactive) | 46.3 µM (inactive) | 29.4 µM (inactive) | 57.8 µM (inactive) | – | 33.5 µM (inactive) | > 100 µM (inactive) | 73.8 µM (inactive) | 45.6 µM (inactive) | 32.6 µM (inactive)
20 | O=C(Cc1ccccc1)NN1C(=O)C(Cl)C1c1ccc(Cl)cc1 (centres undefined) | > 100 µM (inactive) | > 100 | 72.9 µM (inactive) | > 100 µM (inactive) | > 100 µM (inactive) | > 100 µM (inactive) | – | > 100 µM (inactive) | > 100 µM (inactive) | > 100 µM (inactive) | > 100 µM (inactive) | 86.3 µM (inactive) | > 100 µM (inactive) | 62.4 µM (inactive) | 24.1 µM (inactive)
